The numbers were not newly measured in patent US9884040B2, “Desethylamiodarone for use in cancer treatment” (PÉCSI TUDOMÁNYEGYETEM, priority 2015, dated 2018), which cites them from elsewhere.

For this data set the following is noted: in vivo; cited from earlier work.

For `CCCCc1oc2ccccc2c1C(=O)c1cc(I)c(OCCN(CC)CC)c(I)c1` [amiodarone], the Recommended therapeutic range is less than 5.7 µM.
